Reference: PMC3252304, “Hydroxybenzothiazoles as New Nonsteroidal Inhibitors of 17β-Hydroxysteroid Dehydrogenase Type 1 (17β-HSD1)” (PLoS ONE, 2012)

Experiments:
human 17β-HSD1 = biological target: T1, human 17β-HSD1 (Homo sapiens, UniProt P14061); assay: 17β-HSD1 cell free assay (placental cytosolic enzyme, [3H]E1 to E2, HPLC radiodetection); type: biochemical; details: for inhibition at 1 µM / 17β-HSD1 % inhib. (1µM): inhibitor 1 µM, less than 10% = inactive, ni = no inhibition; for inhibition at 1 µM / 17β-HSD1 % inhib. (1µM) / IC50: human placenta cytosolic fraction, [3H]E1 + E1 500 nM, NADH 500 µM; for inhibition at 1 µM: read-out: 17β-HSD1 % inhib. (1µM); for IC50: mean of three determinations
T1 construct: In the cell free assay, the placental cytosolic enzyme was used; from tissue; host or cells: human placenta, cytosolic fraction, ammonium sulfate precipitate
T1 sequence (P14061 1-328): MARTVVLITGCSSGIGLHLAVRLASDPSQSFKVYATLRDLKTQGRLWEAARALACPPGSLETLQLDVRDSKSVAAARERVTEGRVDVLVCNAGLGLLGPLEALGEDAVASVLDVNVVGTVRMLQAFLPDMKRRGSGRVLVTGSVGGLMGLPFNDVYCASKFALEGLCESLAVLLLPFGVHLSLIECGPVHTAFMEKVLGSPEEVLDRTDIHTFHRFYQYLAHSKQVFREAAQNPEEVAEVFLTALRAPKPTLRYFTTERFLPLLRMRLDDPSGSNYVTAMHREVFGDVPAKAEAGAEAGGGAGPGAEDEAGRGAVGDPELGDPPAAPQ
Protocol: In the cell free assay, the placental cytosolic enzyme was used. Tritiated E1 (final concentration: 500 nM) was incubated with 17β-HSD1, NADH (500 µM), and inhibitor as previously described [59]. After high performance liquid chromatography (HPLC) separation of substrate and product, the amount of labeled E2 formed was quantified.
Inhibitory activities were evaluated by an established method with minor modifications. Briefly, the enzyme preparation was incubated with NADH [500 µM] in the presence of potential inhibitors at 37 °C in a phosphate buffer (50 mM) supplemented with 20 % of glycerol and EDTA (1mM). Inhibitor stock solutions were prepared in DMSO. The final concentration of DMSO was adjusted to 1 % in all samples. The enzymatic reaction was started by addition of a mixture of unlabelled- and [2, 4, 6, 7-^3H]-E1 (final concentration: 500 nM, 0.15 µCi). After 10 min, the incubation was stopped with HgCl2 and the mixture was extracted with diethylether. After evaporation, the steroids were dissolved in acetonitrile. E1 and E2 were separated using acetonitrile/water (45:55) as mobile phase in a C18 reverse phase chromatography column (Nucleodur C18 Gravity, 3 µm, Macherey-Nagel, Düren) connected to a HPLC-system (Agilent 1100 Series, Agilent Technologies, Waldbronn). Detection and quantification of the steroids were performed using a radioflow detector (Berthold Technologies, Bad Wildbad). The conversion rate was calculated after analysis of the resulting chromatograms according to the following equation: % conversion = % E2/(% E2 + % E1) × 100. Each value was calculated from at least three independent experiments.

human 17β-HSD2 = biological target: T2, human 17β-HSD2 (Homo sapiens, UniProt P37059); assay: 17β-HSD2 cell free assay (placental microsomal enzyme, [3H]E2 to E1, HPLC radiodetection); type: biochemical; details: for IC50: human placenta microsomal fraction, [3H]E2 + E2 500 nM, NAD+ 1500 µM, mean of three determinations; for SF, selectivity factor = IC50(17β-HSD2)/IC50(17β-HSD1): ratio of cell free IC50 values
T2 construct: 17β-HSD2 was obtained from the microsomal fraction; from tissue; host or cells: human placenta, microsomal fraction
T2 sequence (P37059 1-387): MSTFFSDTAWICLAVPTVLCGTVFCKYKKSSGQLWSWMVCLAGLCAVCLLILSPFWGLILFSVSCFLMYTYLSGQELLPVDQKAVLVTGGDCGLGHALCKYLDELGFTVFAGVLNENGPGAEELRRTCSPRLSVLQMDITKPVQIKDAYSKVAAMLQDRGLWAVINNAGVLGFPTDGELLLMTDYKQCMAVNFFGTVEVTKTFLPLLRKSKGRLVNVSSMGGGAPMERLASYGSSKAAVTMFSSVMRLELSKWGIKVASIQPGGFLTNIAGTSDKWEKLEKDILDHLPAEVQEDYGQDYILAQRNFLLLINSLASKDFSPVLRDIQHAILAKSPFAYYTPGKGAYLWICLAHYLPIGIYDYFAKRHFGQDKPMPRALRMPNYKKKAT
Protocol: Placental microsomal 17β-HSD2 was incubated with tritiated E2 (final concentration: 500 nM) in the presence of NAD^+ (1500 µM) and inhibitor. Separation and quantification of labeled substrate (E2) and product (E1) was performed by HPLC using radiodetection.
17β-HSD1 and 17β-HSD2 were obtained from human placenta according to previously described procedures. Fresh human placenta was homogenized and cytosolic fraction and microsomes were separated by centrifugation. For the partial purification of 17β-HSD1, the cytosolic fraction was precipitated with ammonium sulfate. 17β-HSD2 was obtained from the microsomal fraction.
Inhibition of 17β-HSD2. The 17β-HSD2 inhibition assay was performed similarly to the 17β-HSD1 procedure. The microsomal fraction was incubated with NAD^+ [1500 µM], test compound and a mixture of unlabelled- and [2, 4, 6, 7-^3H]-E2 (final concentration: 500 nM, 0.11 µCi) for 20 min at 37 °C. Further treatment of the samples and HPLC separation were carried out as mentioned above.
The conversion rate was calculated after analysis of the resulting chromatograms according to the following equation: % conversion = % E1/(% E1 + % E2) × 100.

17β-HSD1 = tested on: 17β-HSD1; design: method as in PMID 12223444; details: recombinant protein, NADPH as cosubstrate; value as described; read-out: 17β-HSD1 IC50 (external reference); cited from earlier work
ERs = tested on: ERs; design: method as in PMID 15743715, PMID 16728493; details: RBA(E2) = 100%; cited from earlier work

inhibition at 1 µM (human 17β-HSD1) [%] | 17β-HSD1 % inhib. (1µM) (human 17β-HSD1) | SMILES | other results
28 |  | Oc1cccc(C(O)c2nc3ccc(O)cc3s2)c1 (stereo not shown) [Compound 7] | 
 | inactive and ni | O=C(Cc1cccc(O)c1)Nc1nc2ccc(O)cc2s1 [Compound 25] | 
85 |  | O=C(c1ccc(O)cc1)c1nc2ccc(O)cc2s1 [Compound 14, (6-hydroxy-1,3-benzothiazol-2-yl)(4-hydroxyphenyl)methanone] | IC50 (human 17β-HSD2): 2470 nM; SF, selectivity factor = IC50(17β-HSD2)/IC50(17β-HSD1) (human 17β-HSD2): 10; IC50 (human 17β-HSD1): 243 nM
 | ni. | COc1cccc(C(=O)c2nc3ccc(OC)cc3s2)c1 [Compound 6i] | 
34 |  | Cc1nc(C(=O)c2cccc(O)c2)sc1CCO [Compound 5, [5-(2-hydroxyethyl)-4-methyl-1,3-thiazol-2-yl](3-hydroxyphenyl)methanone] | 
40 |  | O=C(Nc1cccc(O)c1)c1nc2ccc(O)cc2s1 [Compound 18] | IC50 (human 17β-HSD2): 3810 nM; SF, selectivity factor = IC50(17β-HSD2)/IC50(17β-HSD1) (human 17β-HSD2): 3; IC50 (human 17β-HSD1): 1310 nM
91 |  | O=C(c1cccc(O)c1)c1nc2ccc(O)cc2s1 [Compound 6, (6-hydroxy-1,3-benzothiazol-2-yl)(3-hydroxyphenyl)methanone] | IC50 (human 17β-HSD2): 1040 nM; SF, selectivity factor = IC50(17β-HSD2)/IC50(17β-HSD1) (human 17β-HSD2): 24; IC50 (human 17β-HSD1): 44 nM
7 | ni | CSC(c1ccc(O)cc1)c1nc2ccc(O)cc2s1 (stereo not shown) [Compound 9] | 
62 | moderate inhibitory activity | Oc1cccc(NC(=S)Nc2nc3ccc(O)cc3s2)c1 [Compound 24] | 
27 |  | COc1ccc(C(=O)c2nc3ccc(O)cc3s2)cc1 [Compound 13, (6-hydroxy-1,3-benzothiazol-2-yl)(4-methoxyphenyl)methanone] | 
24 |  | Oc1ccc(Cc2nc3ccc(O)cc3s2)cc1 [Compound 11] | 
 | ni | O=C(Nc1ccccc1O)c1nc2ccc(O)cc2s1 [Compound 16] | 
 | ni | COc1ccc2nc(C(=O)Nc3ccccc3O)sc2c1 [Compound 15] | 
 | inactive and ni | O=S(=O)(Nc1nc2ccc(O)cc2s1)c1cccc(O)c1 [Compound 22] | 
 | ni | COc1ccc2nc(Cc3ccc(O)cc3)sc2c1 [Compound 10] | 
13 |  | COC(c1cccc(O)c1)c1nc2ccc(O)cc2s1 (stereo not shown) [Compound 8] | 
 | inactive and no inhibition and ni. | O=C(Nc1cccc(O)c1)Nc1nc2ccc(O)cc2s1 [Compound 23] | 
83 |  | O=C(Nc1nc2ccc(O)cc2s1)c1cccc(O)c1 [Compound 21] | IC50 (human 17β-HSD2): 9260 nM
39 |  | O=C(Nc1nc2ccc(O)cc2s1)c1ccc(O)cc1 [Compound 20] | 
 |  | C[C@]12CC[C@@H]3c4ccc(O)cc4CC[C@H]3[C@@H]1C[C@H](CCCCCCCCC(=O)OCC1OC(n3cnc4c(N)ncnc43)C(O)C1O)[C@@H]2O (stereo partly shown) [EM-1745] | IC50 (17β-HSD1): 52 nM
31 |  | COc1ccc2nc(C(=O)Nc3cccc(O)c3)sc2c1 [Compound 17] | 
 |  | C[C@]12CC[C@@H]3c4ccc(O)cc4CC[C@H]3[C@@H]1CCC2=O [Compound E1, estrone] | RBA for the ERs (ERs): about 10%
 | ni. | COc1ccc(C(=O)Nc2nc3ccc(O)cc3s2)cc1 [Compound 19] | 
75 |  | O=C(c1cccc(O)c1)c1nc2ccccc2s1 [Compound 12, 1,3-benzothiazol-2-yl(3-hydroxyphenyl)methanone] | IC50 (human 17β-HSD2): 1360 nM; SF, selectivity factor = IC50(17β-HSD2)/IC50(17β-HSD1) (human 17β-HSD2): 4; fold lower 17β-HSD1 inhibitory activity than 6 (human 17β-HSD1; compared with compound 6): 8 fold; IC50 (human 17β-HSD1): 365 nM
